Consider three compounds from patent US10519109B2, “Glycopyrronium fatty acid salts and methods of making same” (QAAM PHARMACEUTICALS, LLC, priority 2015, dated 2019).

For data set [1] the following is noted: ~4 months at ambient conditions.
Data set [2] is described as follows: potassium laurate solubility in various solvents (solvent added dropwise under sonication). As to conditions: thermodynamic from solid. In kind it is physicochemical. On the procedure: In order to select the reaction solvents and their optimized volumes, the solubility of potassium laurate in various solvents was checked by adding solvent to dissolve the solids under sonication. A vial was charged with potassium laurate (˜100 mg) and then solvent was added dropwise under sonication. The potassium laurate could not be dissolved with most solvents (200 vol.).

Several values for one entry are separate records, joined by “and”; a condition that tells them apart may be missing. Identical values can stand only once. Like-named read-outs stand apart in the source and are kept apart here.

As for `C[N+]1(C)CCC(OC(=O)C(O)(c2ccccc2)C2CCCC2)C1` (centres unmarked) [glycopyrronium laurate], the “HPLC Results Glycopyrronium” value by setting is: (Expt. 1A: Me-THF Solution at RT over weekend) 87.72 AUC % and 87.72% AUC %; (Expt. 1B: Me-THF Solution at 50° C. over weekend, Bottom layer) 49.47% AUC %; (Expt. 1B: Me-THF Solution at 50° C. over weekend, Top layer) 57 AUC % and 57.13% AUC %; (Expt. 2A: Me-THF Solution in the presence of Lauric Acid at RT over weekend) 89.44% AUC %; (Expt. 2B: Me-THF Solution in the presence of Lauric Acid at 50° C. over weekend, Bottom layer) 65.60% AUC %; (Expt. 2B: Me-THF Solution in the presence of Lauric Acid at 50° C. over weekend, Top layer) 69.58% AUC %.
With `C[N+]1(C)CCC(OC(=O)C(O)(c2ccccc2)C2CCCC2)C1` (centres unmarked) [glycopyrronium stearate], the degradation over time entry in data set [1] is “degradation was observed”.
The solubility is the concentration that dissolves in the medium under given conditions. For the compound `CCCCCCCCCCCC(=O)[O-].[K+]` [potassium laurate], the solubility is under 5000 µg/mL in data set [2] (organic solvent or mixture, Acetone, 50° C.); under 5000 µg/mL in data set [2] (organic solvent or mixture, Acetone, room temperature, read-out: potassium laurate solubility At Room Temperature); under 5000 µg/mL in data set [2] (organic solvent or mixture, Butyl Acetate, 50° C.); under 5000 µg/mL in data set [2] (organic solvent or mixture, Butyl Acetate, room temperature, read-out: potassium laurate solubility At Room Temperature); about 14000 µg/mL in data set [2] (organic solvent or mixture, Ethanol, room temperature, read-out: potassium laurate solubility At Room Temperature); under 5000 µg/mL in data set [2] (organic solvent or mixture, Ethyl Acetate, 50° C.). Further, the solubility in data set [2] (organic solvent or mixture, Ethyl Acetate, room temperature, read-out: potassium laurate solubility At Room Temperature) is under 5000 µg/mL; in data set [2] (organic solvent or mixture, IPA, 50° C.) it was under 5000 µg/mL; in data set [2] (organic solvent or mixture, IPA, room temperature, read-out: potassium laurate solubility At Room Temperature), under 5000 µg/mL; in data set [2] (organic solvent or mixture, Isopropyl Acetate, 50° C.) it was under 5000 µg/mL; in data set [2] (organic solvent or mixture, Isopropyl Acetate, room temperature, read-out: potassium laurate solubility At Room Temperature), under 5000 µg/mL; in data set [2] (organic solvent or mixture, MEK, 50° C.) it was under 5000 µg/mL. The solubility in data set [2] (organic solvent or mixture, MEK, room temperature, read-out: potassium laurate solubility At Room Temperature) was under 5000 µg/mL; in data set [2] (organic solvent or mixture, MIBK, 50° C.) it was under 5000 µg/mL; in data set [2] (organic solvent or mixture, MIBK, room temperature, read-out: potassium laurate solubility At Room Temperature), under 5000 µg/mL; in data set [2] (organic solvent or mixture, Methanol, room temperature, read-out: potassium laurate solubility At Room Temperature), about 50000 µg/mL; in data set [2] (organic solvent or mixture, Methyl Acetate, 50° C.), under 5000 µg/mL; in data set [2] (organic solvent or mixture, Methyl Acetate, room temperature, read-out: potassium laurate solubility At Room Temperature), under 5000 µg/mL. The solubility in data set [2] (Water, room temperature, read-out: potassium laurate solubility At Room Temperature) is about 138000 µg/mL.
